Experimental data: patent publication US5534521A, “Benzimidazole compounds” (G. D. Searle & Co., priority 1994, dated 1996)

Columns and labels:
5-HT3 = experiment: Bezold-Jarisch Reflex (5-HT-induced bradycardia in anesthetized mice); assay type: in vivo; conditions: i.p., 30 min before 5-HT (0.25 mg/kg i.v.), >50 percent reduction in bradycardic response vs vehicle
Procedure: (§1) 5-HT4 agonist activity was determined in the in vitro rat tunica muscularis mucosae (TMM) assay. (Baxter et al., Naunyn Schmied Arch. Pharmacol, 1991, 343, 439). The 5-HT4 agonist or antagonist activity and/or 5-HT3 antagonist activity of the compounds of the invention herein, can be determined by the assays as described herein, without undue experimention.
The compound to be evaluated was administered i.p. (mg/kg) to a group of 3 mice.
This method has been described by Saxena, P. R. and Lawang, A., Arch. Int. Pharmacodyn., 277:235-252, 1985.

5-HT3 receptor = target: T1, 5-HT3 receptor (Rattus norvegicus, UniProt P35563); experiment: Serotonin (5-HT3) radioligand receptor binding, [3H]-GR65630, rat brain cortex membranes
T1 construct: Brain cortices were obtained from male rats and a membrane fraction prepared by standard techniques; from tissue; host or cells: rat brain cortex membranes (male rats)
T1 sequence (P35563 24-483): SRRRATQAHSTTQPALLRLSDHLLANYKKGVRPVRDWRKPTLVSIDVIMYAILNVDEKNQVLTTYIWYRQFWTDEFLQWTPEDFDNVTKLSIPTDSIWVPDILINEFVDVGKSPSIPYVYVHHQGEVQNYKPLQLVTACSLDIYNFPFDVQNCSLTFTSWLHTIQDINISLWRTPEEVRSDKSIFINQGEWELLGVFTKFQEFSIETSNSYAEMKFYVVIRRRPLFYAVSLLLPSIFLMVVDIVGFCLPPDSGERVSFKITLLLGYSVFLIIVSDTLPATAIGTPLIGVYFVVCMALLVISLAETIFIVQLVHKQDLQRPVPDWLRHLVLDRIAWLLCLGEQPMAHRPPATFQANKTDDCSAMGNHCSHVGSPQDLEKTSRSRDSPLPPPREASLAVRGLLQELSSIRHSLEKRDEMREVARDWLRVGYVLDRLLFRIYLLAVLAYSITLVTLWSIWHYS
Procedure: as §1
GR65630 binds to the 5-HT3 receptor. Brain cortices were obtained from male rats and a membrane fraction prepared by standard techniques. 0.04 mg of membrane prep was incubated with 0.2 nM […] for 60 minutes at 22° C. […] Kilpatrick G. J., Jones B. J. and Tyers M. B. Identification and distribution of 5-HT3 receptors in rat brain using radioligand binding assay. Nature, 330: 746-748, 1987.

5-HT4 receptor = target: T2, 5-HT4 receptor (Rattus norvegicus, UniProt Q62758); experiment: cell-based; conditions: carbachol (3 μM) contracted rat tunica muscularis mucosae, 37° C., cumulative addition, tissues from 5 rats; read-out: 5-HT4 Agonism (Rat TMM) In Vitro Assay: EC50 Values
T2 construct: One 2 cm segment of intrathoracic esophagus proximal to the diaphragm was removed from male rats; from tissue; host or cells: rat intrathoracic esophagus, inner tunica muscularis mucosae (male rats)
Procedure: as §1
Agonist activity was determined utilizing relaxation of carbachol-contracted rat tunica muscularis mucosae. One 2 cm segment of intrathoracic esophagus proximal to the diaphragm was removed from male rats, weighing approximately 300 gm, and the outer muscle layers removed. The inner tunica muscularis mucosa was mounted under 0.2-0.3 g of tension in a tissue bath containing oxygenated Tyrode's solution at 37° C. […] Following a 30 min equilibrium period, tissues were isometrically contracted with carbachol (3 μM) to obtain a tonic contraction. A stable plateau was obtained within 20 min when test compound was added cumulatively to relax the muscle strip. EC50 values were obtained for each agonist in tissues from 5 rats.

T2 sequence (Q62758 whole entry): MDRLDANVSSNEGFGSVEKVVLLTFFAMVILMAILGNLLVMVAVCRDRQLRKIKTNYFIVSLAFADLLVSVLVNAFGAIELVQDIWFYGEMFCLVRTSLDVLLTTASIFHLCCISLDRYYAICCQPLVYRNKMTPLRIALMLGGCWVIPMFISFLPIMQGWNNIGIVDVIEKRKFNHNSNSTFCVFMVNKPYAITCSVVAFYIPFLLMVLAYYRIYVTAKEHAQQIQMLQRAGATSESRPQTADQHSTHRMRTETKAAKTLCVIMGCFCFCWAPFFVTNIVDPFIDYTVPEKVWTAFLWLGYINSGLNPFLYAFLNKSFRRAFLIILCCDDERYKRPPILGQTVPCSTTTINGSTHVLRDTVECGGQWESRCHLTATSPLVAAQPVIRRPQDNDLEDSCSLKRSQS

| Structure (SMILES) | Minimum Effective Dose (MED) (5-HT3) | also measured |
| --- | --- | --- |
| CC(C)n1c(=O)n(C(=O)NC[C@@H]2CCN3CCC[C@@H]23)c2ccccc21 (relative stereo) [Example 23, cis-N-[(hexahydro-1H-pyrrolizin-1-yl)methyl]-2,3-dihydro-3-(1-methylethyl)-2-oxo-1H-benzimidazole-1-carboxamide] | 1 mg/kg | Ki (5-HT3 receptor): 75 nM; EC50 (5-HT4 receptor): 374 nM |
| CN1C2CCCC1CC(NC(=O)c1nn(C)c3ccccc13)C2 (stereo not drawn) [BRL-43694] | 0.05 mg/kg |  |
| CC(C)n1c(=O)n(C(=O)NCCC23CCCN2CCC3)c2ccccc21 [Example 13, N-[2-(hexahydro-7aH-pyrrolizin-7a-yl)ethyl]-2,3-dihydro-3-(1-methylethyl)-2-oxo-1H-benzimidazole-1-carboxamide] | 10 mg/kg |  |
| CC(C)n1c(=O)n(C(=O)NC2C3CC4CC2CN(C4)C3)c2ccc(Cl)cc21 (stereo not drawn) [Example 17, N-(1-azatricyclo[3.3.1.1^3,7]decan-4-yl)-5-chloro-2,3-dihydro-3-(1-methylethyl)-2-oxo-1H-benzimidazole-1-carboxamide] |  | inhibition at 10 µM (5-HT3 receptor; 1 h, read-out: Effect of Compounds on [H]-GR65630 Bound (0.2 nM), % @ 10,000 nM): 41% |
| CC(C)n1c(=O)n(C(=O)NC2C3CC4CC2CN(C4)C3)c2cc(Cl)ccc21 (stereo not drawn) [Example 22B, N-(1-azatricyclo[3.3.1.1^3,7]decan-4-yl)-6-chloro-2,3-dihydro-3-(1-methylethyl)-2-oxo-1H-benzimidazole-1-carboxamide] |  | Ki (5-HT3 receptor): 4.9 nM |
| Cc1nc[nH]c1CCC(=O)c1cn(C)c2ccccc12 [GR65630] |  | % Specific Binding (5-HT3 receptor; radioligand, non-specific binding in the presence of 1 uM ICS 205-930): 70% |
| O=c1[nH]c2ccccc2n1CCCN1CCC(n2c(=O)[nH]c3cc(Cl)ccc32)CC1 [domperidone] | > 10 mg/kg |  |
| CCC(CO)NC(=O)C1C=C2c3cccc4c3c(cn4C)CC2N(C)C1 (stereo not drawn) [methylsergide] | > 10 mg/kg |  |
| CCN(CC)CCNC(=O)c1cc(Cl)c(N)cc1OC [metoclopramide] | 5 mg/kg |  |
| CN1[C@@H]2C[C@@H](OC(=O)[C@H](CO)c3ccccc3)C[C@H]1[C@@H]1O[C@@H]12 [scopolamine] | 2.5 mg/kg |  |
